Data from patent publication US8293781B2, “Indole derivatives having cPLA2 inhibiting activity and applications and production methods of the same” (Daiichi Sankyo Company, Limited, priority 2007, dated 2012).
Where a name gives a salt, the structure may show the parent alone.

What follows are molecules tested against T1, cPLA2 crudely purified from the cytoplasm fraction of U937 (Homo sapiens, UniProt P47712) (assay: Measurement of cPLA2 inhibitory activity (release of [14C]-arachidonic acid from phosphatidyl choline liposome)). Settings: not given.
T1 construct: cPLA2 crudely purified from the cytoplasm fraction of U937; endogenous in cells; host or cells: U937 cells (cytoplasm fraction, crude purification)
T1 sequence (P47712 1-749): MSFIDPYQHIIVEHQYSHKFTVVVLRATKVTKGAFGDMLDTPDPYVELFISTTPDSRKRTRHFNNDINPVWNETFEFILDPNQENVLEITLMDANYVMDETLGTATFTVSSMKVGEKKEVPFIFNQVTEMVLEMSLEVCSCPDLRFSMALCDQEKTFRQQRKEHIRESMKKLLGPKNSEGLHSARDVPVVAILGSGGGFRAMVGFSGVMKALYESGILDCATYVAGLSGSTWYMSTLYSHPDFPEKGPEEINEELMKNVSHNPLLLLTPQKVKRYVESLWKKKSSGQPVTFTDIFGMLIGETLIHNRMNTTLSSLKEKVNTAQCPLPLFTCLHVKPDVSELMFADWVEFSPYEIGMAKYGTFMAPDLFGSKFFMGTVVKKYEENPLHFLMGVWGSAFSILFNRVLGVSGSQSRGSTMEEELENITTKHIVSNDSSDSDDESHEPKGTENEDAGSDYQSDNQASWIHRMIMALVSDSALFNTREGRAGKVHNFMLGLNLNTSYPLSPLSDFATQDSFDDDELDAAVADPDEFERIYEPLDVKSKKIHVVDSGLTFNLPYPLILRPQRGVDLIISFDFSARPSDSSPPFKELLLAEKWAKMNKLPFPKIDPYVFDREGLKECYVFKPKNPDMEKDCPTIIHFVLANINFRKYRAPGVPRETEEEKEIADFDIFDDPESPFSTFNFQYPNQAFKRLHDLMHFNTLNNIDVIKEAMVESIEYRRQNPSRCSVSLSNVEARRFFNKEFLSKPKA
Type: biochemical
Method: The cPLA2 inhibitory activity was measured based on the method described in the document [See H. Naraba et al., J. Immunol. 160, 2974-2982 (1998)] and modified in the following way.
A DMSO solution of the present invitation compounds was diluted to 2.5 times the final concentration with the assay buffer (4 mM CaCl2, 2 mM dithiothreitol, 150 mM NaCl, 50 mM HEPES buffer solution (pH7.5)) containing 0.55 mg/ml BSA. To 20 μl of this, cPLA2 crudely purified from the cytoplasm fraction of U937 was added in an amount of 10 μl after dilution by an assay buffer solution containing 0.55 mg/ml BSA. A liposome prepared by ultrasonically treating L-α-1-palmitoyl-2-[14C]arachidonyl-phosphatidyl choline (made by PerkinElmer) and adjusted by the assay buffer solution to a concentration of phosphatidyl choline of 10 μM was added and stirred in by an amount of 20 μl and the mixture was reacted at 37° C. for 60 minutes. The [^14C]-arachidonic acid released due to the reaction was extracted based on the method described in the documents [see V. P. Dole et al., J. Biol. Chem. 235, 2595 (1960)], was added to Lumaplate® (made by PerkinElmer), dried, then measured by Topcount® (made by PerkinElmer). Except for not adding the present invention compounds, the same procedure was performed as the above to obtain the enzyme control. Except for not adding the invention compounds and not adding the enzyme, the same procedure was followed as above to obtain a negative control. The inhibiting activity was expressed as a percent (%) of the value minus the negative control with respect to the value of the enzyme control minus the negative control. From this, the 50% inhibiting concentration (IC50, μM) was calculated.

| SMILES | IC50 |
| --- | --- |
| Cc1c(C(=O)Cc2ccccc2)c2cc(CCC(=O)O)ccc2n1-c1ccccc1 [Example 45, 3-[2-methyl-1-phenyl-3-(phenylacetyl)-1H-indol-5-yl]propanoic acid] | 225 nM |
| O=C(O)/C=C/c1ccc2c(c1)c(C(=O)Cc1ccc(Cl)cc1)cn2-c1ccccc1 [Example 56, (2E)-3-{3-[(4-chlorophenyl)acetyl]-1-phenyl-1H-indol-5-yl}-2-propenoic acid] | 6400 nM |

Same assay, conditions: cPLA2 from U937 cytoplasm fraction, [14C]arachidonyl-phosphatidyl choline liposome, 37° C., 60 minutes; read-out: cPLA2 inhibitory activity, 50% inhibiting concentration IC50

| SMILES | IC50 |
| --- | --- |
| CC(=O)Nc1ccc(-n2cc(CCc3ccccc3)c3cc(CCC(=O)O)ccc32)cc1 [Example 91, 3-{1-[4-(acetylamino)phenyl]-3-(2-phenylethyl)-1H-indol-5-yl}propanoic acid 2-amino-2-(hydroxymethyl)propane-1,3-diol salt (1:1)] | 207 nM |
| Cc1ccc(-n2cc(CCc3ccccc3)c3cc(CCC(=O)O)ccc32)cc1 [Example 95, 3-[1-(4-methylphenyl)-3-(2-phenylethyl)-1H-indol-5-yl]propanoic acid 2-amino-2-(hydroxymethyl)propane-1,3-diol salt (1:1)] | 77 nM |
| O=C(O)CCc1ccc2c(c1)c(CCc1ccccn1)cn2-c1ccc(OCCO)cc1 [Example 279, 3-{1-[4-(2-hydroxyethoxy)phenyl]-3-(2-pyridin-2-ylethyl)-1H-indol-5-yl}propanoic acid hydrochloride] | 245 nM |
| O=C(O)CCc1ccc2c(c1)c(CCc1ccccc1)cn2-c1cccc([N+](=O)[O-])c1 [Example 165, 3-[1-(3-nitrophenyl)-3-(2-phenylethyl)-1H-indol-5-yl]propanoic acid] | 154 nM |
| Nc1ccc(-n2cc(CCc3ccccc3)c3cc(CCC(=O)O)ccc32)cc1 [Example 196, 3-[1-(4-aminophenyl)-3-(2-phenylethyl)-1H-indol-5-yl]propanoic acid] | 66 nM |
| CN(C)S(=O)(=O)c1ccc(-n2cc(CCc3ccccc3)c3cc(CCC(=O)O)ccc32)cc1 [Example 318, 3-[1-{4-[(dimethylamino)sulfonyl]phenyl}-3-(2-phenylethyl)-1H-indol-5-yl]propanoic acid] | 271 nM |
| O=C(O)CCc1ccc2c(c1)c(CCc1ccccc1)cn2-c1ccc(OC2CCCCO2)cc1 (stereo not shown) [Example 214, 3-{3-(2-phenylethyl)-1-[4-(tetrahydro-2H-pyran-2-yloxy)phenyl]-1H-indol-5-yl}propanoic acid 2-amino-2-(hydroxymethyl)propane-1,3-diol salt (1:1)] | 5 nM |
| O=C(O)CCc1ccc2c(c1)c(CCc1ccccc1)cn2-c1ccc(OCCCO)cc1 [Example 328, 3-{1-[4-(3-hydroxypropoxy)phenyl]-3-(2-phenylethyl)-1H-indol-5-yl}propanoic acid 2-amino-2-(hydroxymethyl)propane-1,3-diol salt (1:1)] | 57 nM |
| O=C(O)CCc1ccc2c(c1)c(CCc1ccccc1)cn2-c1ccc(SCc2ccccc2)cc1 [Example 335, 3-[1-(4-benzylthiophenyl)-3-(2-phenylethyl)-1H-indol-5-yl]propanoic acid] | 9 nM |
| O=C(O)CCc1ccc2c(c1)c(CCc1ccccn1)cn2-c1cccc(O)c1 [Example 282, 3-[1-(3-hydroxyphenyl)-3-(2-pyridin-2-ylethyl)-1H-indol-5-yl]propanoic acid hydrochloride] | 582 nM |
| O=C(O)CCc1ccc2c(c1)c(CCc1ccccc1)cn2-c1ccc(CO)cc1 [Example 220, 3-{1-[4-(hydroxymethyl)phenyl]-3-(2-phenylethyl)-1H-indol-5-yl}propanoic acid 2-amino-2-(hydroxymethyl)propane-1,3-diol salt (1:1)] | 146 nM |
| CCOc1ccc(-n2cc(CCc3ccccc3)c3cc(CCC=O)ccc32)cc1 [Example 117] | 527 nM |
| O=C(O)CCc1ccc2c(c1)c(CCc1ccccc1)cn2-c1ccc([N+](=O)[O-])cc1 [Example 83, 3-[1-(4-nitrophenyl)-3-(2-phenylethyl)-1H-indol-5-yl]propanoic acid] | 101 nM |
| O=C(O)CCc1ccc2c(c1)c(CCc1ccccc1)cn2-c1ccc(Cc2ccccn2)cc1 [Example 235, 3-{3-(2-phenylethyl)-1-[4-(pyridin-2-ylmethyl)phenyl]-1H-indol-5-yl}propanoic acid hydrochloride] | 122 nM |
| O=C(O)CCc1ccc2c(c1)c(CCc1ccccc1)cn2-c1ccc(Cc2ccncc2)cc1 [Example 237, 3-{3-(2-phenylethyl)-1-[4-(pyridin-4-ylmethyl)phenyl]-1H-indol-5-yl}propanoic acid hydrochloride] | 193 nM |
| CC(O)c1ccc(-n2cc(CCc3ccccc3)c3cc(CCC(=O)O)ccc32)cc1 (stereo not shown) [Example 295, 3-{1-[4-(1-hydroxyethyl)phenyl]-3-(2-phenylethyl)-1H-indol-5-yl}propanoic acid 2-amino-2-(hydroxymethyl)propane-1,3-diol salt (1:1)] | 755 nM |
| O=C(O)CCc1ccc2c(c1)c(CCc1ccccc1)cn2-c1cccc(S(=O)(=O)N2CCOCC2)c1 [Example 324, 3-{1-[3-(morpholin-4-ylsulfonyl)phenyl]-3-(2-phenylethyl)-1H-indol-5-yl}propanoic acid] | 1630 nM |
| CS(=O)(=O)c1ccc(-n2cc(CCc3ccccc3)c3cc(CCC(=O)O)ccc32)cc1 [Example 326, 3-{1-[4-(methylsulfonyl)phenyl]-3-(2-phenylethyl)-1H-indol-5-yl}propanoic acid] | 486 nM |
| O=C(O)CCc1ccc2c(c1)c(CCc1ccccc1)cn2-c1ccc(CCO)cc1 [Example 209, 3-{1-[4-(2-hydroxyethyl)phenyl]-3-(2-phenylethyl)-1H-indol-5-yl}propanoic acid] | 244 nM |
| CCC(Cc1cn(-c2ccccc2)c2ccc(CCC(=O)O)cc12)c1ccccc1 (stereo not shown) [Example 37, 3-[1-phenyl-3-(2-phenylbutyl)-1H-indol-5-yl]propanoic acid 2-amino-2-(hydroxymethyl)propane-1,3-diol salt (1:1)] | 1450 nM |
| O=C(O)/C=C/c1ccc2c(c1)c(CCc1ccccn1)cn2-c1ccccc1 [Example 263, (2E)-3-[1-phenyl-3-(2-pyridin-2-ylethyl)-1H-indol-5-yl]-2-propenoic acid] | 1440 nM |
| N#Cc1ccc(-n2cc(CCc3ccccc3)c3cc(CCC(=O)O)ccc32)cc1 [Example 81, 3-[1-(4-cyanophenyl)-3-(2-phenylethyl)-1H-indol-5-yl]propanoic acid] | 58 nM |
| CSc1ccc(-n2cc(CCc3ccccc3)c3cc(CCC(=O)O)ccc32)cc1 [Example 334, 3-[1-(4-methylthiophenyl)-3-(2-phenylethyl)-1H-indol-5-yl]propanoic acid] | 11 nM |
| CS(=O)(=O)NC(=O)CCc1ccc2c(c1)c(CCc1ccccc1)cn2-c1ccc(Oc2ccccc2)cc1 [Example 331, N-(methylsulfonyl)-3-[1-(4-phenoxyphenyl)-3-(2-phenylethyl)-1H-indol-5-yl]propanamide] | > 3000 nM |
| O=C(CCc1ccc2c(c1)c(CCc1ccccc1)cn2-c1ccccc1)C(F)(F)F [Example 113, 1,1,1-trifluoro-4-[1-phenyl-3-(2-phenylethyl)-1H-indol-5-yl]butan-2-one] | 1150 nM |
| CC(C(=O)c1cn(-c2ccccc2)c2ccc(/C=C/C(=O)O)cc12)c1ccccc1 (stereo not shown) [Example 26, (2E)-3-[1-phenyl-3-(2-phenylpropanoyl)-1H-indol-5-yl]-2-propenoic acid] | 3400 nM |
